Data taken from ChEMBL document CHEMBL1124482, “Rotationally restricted mimics of rigid molecules: nonspirocyclic hydantoin aldose reductase inhibitors” (J Med Chem, 1989).
pIC50: −log10 of the molar value.

target: T1, Aldo-keto reductase family 1 member B1 (Homo sapiens, UniProt P15121); assay: Compound was evaluated for inhibition of human placental aldose reductase (HPAR) activity with glyceraldehyde as substrate

Structure (SMILES) | pIC50
CCCCNS(=O)(=O)c1ccc(Cl)cc1C1NC(=O)NC1=O (centres undefined) | 6.15
CS(=O)(=O)c1ccc(Cl)cc1C1NC(=O)NC1=O (centres undefined) | 7.30
C[S+]([O-])c1ccc(Cl)cc1C1NC(=O)NC1=O (centres undefined) | 6.60

target: T1, Aldo-keto reductase family 1 member B1; assay: Inhibition of human placental aldose reductase (HPAR) activity with glyceraldehyde as substrate

Structure (SMILES) | pIC50
CCCCCCS(=O)(=O)c1ccc(Cl)cc1C1NC(=O)NC1=O (centres undefined) | 6.64
CC(C)S(=O)(=O)c1ccc(Cl)cc1C1NC(=O)NC1=O (centres undefined) | 6.42
O=C1NC(=O)C(c2cc(Cl)ccc2S(=O)(=O)NCc2ccccc2)N1 (centres undefined) | 7.52
O=C1NC(=O)C(c2cc(Cl)ccc2S(=O)(=O)CCc2ccc(Cl)cc2)N1 (centres undefined) | 6.66
O=C1NC(=O)C(c2cc(Cl)ccc2S(=O)(=O)NCCCCc2ccccc2)N1 (centres undefined) | 5.25
CCCCCS(=O)(=O)c1ccc(Cl)cc1C1NC(=O)NC1=O (centres undefined) | 7.30
CCS(=O)(=O)c1ccc(Cl)cc1C1NC(=O)NC1=O (centres undefined) | 6.74
Cc1cc(Cl)cc(C2NC(=O)NC2=O)c1S(C)(=O)=O (centres undefined) | 6.57
CCCCCNS(=O)(=O)c1ccc(Cl)cc1C1NC(=O)NC1=O (centres undefined) | 6.72
O=C1NC(=O)C(c2cc(Cl)ccc2S(=O)(=O)Cc2ccc(Cl)cc2)N1 (centres undefined) | 6.57
O=C1NC(=O)C(c2cc(Cl)ccc2S(=O)(=O)NCCCc2ccccc2)N1 (centres undefined) | 7.00
CNS(=O)(=O)c1ccc(Cl)cc1C1NC(=O)NC1=O (centres undefined) | 6.89
COc1ccc(F)cc1C1NC(=O)NC1=O (centres undefined) | 5.13
O=C1NC(=O)C(c2cc(Cl)ccc2[S+]([O-])Cc2ccc(Cl)cc2)N1 (centres undefined) | 6.33
O=C1NC(=O)C(c2cc(Cl)ccc2SCc2ccc(Cl)cc2)N1 (centres undefined) | 5.92
CS(=O)(=O)c1ccc(F)cc1C1NC(=O)NC1=O (centres undefined) | 6.21
O=C1NC(=O)C(c2cc(Cl)ccc2S(=O)(=O)Nc2ccc(F)cc2)N1 (centres undefined) | 6.64
O=C1NC(=O)C(c2cc(Cl)ccc2S(=O)(=O)NCCc2ccccc2)N1 (centres undefined) | 5.90
CS(=O)(=O)c1c(Cl)cc(Cl)cc1C1NC(=O)NC1=O (centres undefined) | 6.21
COc1ccc(Cl)cc1C1NC(=O)NC1=O (centres undefined) | 5.41
CSc1ccc(Cl)cc1C1NC(=O)NC1=O (centres undefined) | 6.21
NS(=O)(=O)c1ccc(Cl)cc1C1NC(=O)NC1=O (centres undefined) | 6.82
CN(C)S(=O)(=O)c1ccc(Cl)cc1C1NC(=O)NC1=O (centres undefined) | 5.35
CCCNS(=O)(=O)c1ccc(Cl)cc1C1NC(=O)NC1=O (centres undefined) | 6.24
CS(=O)(=O)c1c(C2NC(=O)NC2=O)cc(Cl)cc1C(F)(F)F (centres undefined) | 6.24
CCCS(=O)(=O)c1ccc(Cl)cc1C1NC(=O)NC1=O (centres undefined) | 6.60
